{"source": "patent US20240299328A1", "about": "“COMPOSITIONS COMPRISING 15-HEPE AND METHODS OF TREATING AND/OR PREVENTING HEMATOLOGIC DISORDERS AND RELATED DISEASES” (Afimmune Limited, priority 2023, published 2024)", "key": {"[1]": {"test_system": "α-SMA, TIMP-1, TGF-β and Collagen Type 1 mRNA", "assay": "UUO study: quantitative RT-PCR of kidney", "type": "in vivo", "details": "UUO mice kidney, normalized to 36B4, Day 14, mean ± SD", "description": "Quantitative RT-PCR: Total ribonucleic acid (RNA) was extracted from kidney samples using RNAiso. One μg of RNA was reverse-transcribed using a reaction mixture containing […] (mM) of magnesium chloride (MgCl2), 40 U RNase inhibitor, 0.5 mM dNTP, 6.28 µM random hexamer, 5× first strand buffer, 10 mM dithiothreitol and 200 U MMLV-RT in a final volume of 20 μL. The reaction was carried out for 1 hour at 37° C., followed by 5 minutes at 99° C. Real-time PCR was performed using real-time PCR DICE and TB Green™ Premix Ex Taq™ II. To calculate the relative […] (mRNA) expression level, the expression of each gene (e.g., α-SMA, TIMP-1, TGF-β and Collagen Type 1) was normalized to that of reference gene 36B4 (gene symbol: Rplp0). Information regarding the PCR-primer sets and the plate layout are described in Tables 1 and 2."}, "NAFLD patients": {"test_system": "NAFLD patients", "from_the_text": "Safety Assessments included the following: medical history; physical examination; ECG; vital signs; clinical laboratory safety tests (e.g., hematology, serum biochemistry, coagulation, lipid profile, and urinalysis); virology; pregnancy test; blood sampling; pharmacokinetic sampling; exploratory blood collection; biomarker blood collection; urine DOA and alcohol breath test; adverse event assessment; concomitant medication; bioanalysis; sample, storage, handling; and shipping; and restrictions. A detailed description of each is provided below.\nAEs were recorded in the case report form, defining relationship to IMP and severity.\nSAE: If a patient experienced a serious adverse event after the first dose of the study drug, the event was recorded as a SAE. A SAE is characterized as an untoward medical occurrence at any dose to include any of the following: results in death, is life threatening, requires in-patient hospitalization or prolongation of existing hospitalization, or results in persistent or significant disability/incapacity. The term “life-threatening” refers to an event in which the patient was at risk of death at the time of the event.\nSafety Analysis: Demographic, medical history and physical examination data were listed for each patient and summarized descriptively. All AEs recorded during the study were coded to system organ class and preferred terms using the current version of the Medical Dictionary for Regulatory Activities (MedDRA). AEs were tabulated and summarized by treatment, relationship to treatment, seriousness and severity. Clinical laboratory values (e.g., hematology, biochemistry, and urinalysis) were listed for each patient by treatment and day. Values outside the laboratory normal ranges were listed separately with associated comments as to their clinical significance, with potentially clinically significant abnormalities highlighted and summarized by treatment. Clinical laboratory values obtained prior to dosing were defined as baseline values. Alcohol breath test and DOA test results were listed for each patient. Individual values of vital signs were listed and summarized descriptively for each treatment and day. 12 lead ECG assessments were listed for each patient with all associated comments and summarized by treatment and day. Concomitant medications (if any), categorized by medication group and subgroup according to the latest version of the World Health Organization drug dictionary, were listed and summarized by treatment. In general, appropriate descriptive statistics according to the nature of the variable were applied. Categorical variables were presented using counts and percentage, whilst continuous variables were presented using mean, standard deviation, median, minimum, maximum, coefficient of variation and number of patients."}, "[2]": {"test_system": "α-SMA, TIMP-1, TGF-β and Collagen Type 1 mRNA", "assay": "BDL study: quantitative RT-PCR of liver", "type": "in vivo", "details": "BDL mice liver, normalized to 36B4, Day 14, mean ± SD", "description": "Quantitative RT-PCR: Total ribonucleic acid (RNA) was extracted from liver samples using RNAiso. One μg of RNA was reverse-transcribed using a reaction mixture containing 4.4 mM magnesium chloride (MgCl2), 40 U RNase inhibitor, 0.5 mM dNTP, 6.28 μM random hexamer, 5× first strand buffer, 10 mM dithiothreitol and 200 U MMLV-RT in a final volume of 20 μL. The reaction was carried out for 1 hour at 37° C., followed by 5 minutes at 99° C. Real-time PCR was performed using real-time PCR DICE and TB Green™ Premix Ex Taq™ II. To calculate the relative mRNA expression level, the expression of each gene (α-SMA, TIMP-1, TGF-β and Collagen Type 1) was normalized to that of reference gene 36B4 (gene symbol: Rplp0). Information regarding the PCR-primer sets and the plate layout are described in Tables 8 and 9."}}, "note": "Read-outs that look alike come from different tables or passages of the source.", "data": [{"smiles": "CC/C=C\\C[C@H](O)/C=C/C=C\\C/C=C\\C/C=C\\CCCC(=O)OCC", "note": "[DS102, 15(S)-hydroxy-(5Z,8Z,11Z,13E,17Z)-eicosapentaenoic acid ethyl ester]", "values": [{"measurement": "Alpha-SMA mRNA expression level", "setting": "[1]; 50 mg/kg PO QD Day 0-13", "value": "3.74 ± 0.81"}, {"measurement": "Collagen Type 1 mRNA expression level", "setting": "[1]; 50 mg/kg PO QD Day 0-13", "value": "11.80 ± 1.78"}, {"measurement": "TGF-β mRNA expression level", "setting": "[1]; 50 mg/kg PO QD Day 0-13", "value": "4.31 ± 0.69"}, {"measurement": "TIMP-1 mRNA expression level", "setting": "[1]; 50 mg/kg PO QD Day 0-13", "value": "138.30 ± 30.39"}, {"measurement": "Alpha-SMA mRNA expression level", "setting": "[1]; 500 mg/kg PO QD Day 0-13", "value": "5.54 ± 1.54"}, {"measurement": "Collagen Type 1 mRNA expression level", "setting": "[1]; 500 mg/kg PO QD Day 0-13", "value": "14.09 ± 2.88"}, {"measurement": "TGF-β mRNA expression level", "setting": "[1]; 500 mg/kg PO QD Day 0-13", "value": "5.37 ± 0.76"}, {"measurement": "TIMP-1 mRNA expression level", "setting": "[1]; 500 mg/kg PO QD Day 0-13", "value": "124.80 ± 28.60"}, {"measurement": "AEs leading to treatment discontinuation", "setting": "NAFLD patients; 1 g DS102 (n = 32)", "value": "0 n (%)"}, {"measurement": "Death", "setting": "NAFLD patients; 1 g DS102 (n = 32)", "value": "0 n (%)"}, {"measurement": "Patients with ≥1 AE", "setting": "NAFLD patients; 1 g DS102 (n = 32)", "value": "19 (59.4) n (%)"}, {"measurement": "Patients with ≥1 AE related to study drug", "setting": "NAFLD patients; 1 g DS102 (n = 32)", "value": "2 (6.3) n (%)"}, {"measurement": "Patients with ≥1 SAE", "setting": "NAFLD patients; 1 g DS102 (n = 32)", "value": "0 n (%)"}, {"measurement": "SAEs related to drug study", "setting": "NAFLD patients; 1 g DS102 (n = 32)", "value": "0 n (%)"}, {"measurement": "AEs leading to treatment discontinuation", "setting": "NAFLD patients; 2 g DS102 (n = 30)", "value": "0 n (%)"}, {"measurement": "Death", "setting": "NAFLD patients; 2 g DS102 (n = 30)", "value": "0 n (%)"}, {"measurement": "Patients with ≥1 AE", "setting": "NAFLD patients; 2 g DS102 (n = 30)", "value": "15 (50.0) n (%)"}, {"measurement": "Patients with ≥1 AE related to study drug", "setting": "NAFLD patients; 2 g DS102 (n = 30)", "value": "3 (10.0) n (%)"}, {"measurement": "Patients with ≥1 SAE", "setting": "NAFLD patients; 2 g DS102 (n = 30)", "value": "1 (3.3) n (%)"}, {"measurement": "SAEs related to drug study", "setting": "NAFLD patients; 2 g DS102 (n = 30)", "value": "0 n (%)"}, {"measurement": "safety and tolerance", "setting": "NAFLD patients; NAFLD patients, 1 g or 2 g per day, 16 weeks, compared to placebo", "value": "safe and well tolerated"}, {"measurement": "Alpha-SMA mRNA expression level", "setting": "[2]; 50 mg/kg PO QD Day 0-13", "value": "3.21 ± 1.67"}, {"measurement": "Collagen Type 1 mRNA expression level", "setting": "[2]; 50 mg/kg PO QD Day 0-13", "value": "4.94 ± 2.76"}, {"measurement": "TGF-β mRNA expression level", "setting": "[2]; 50 mg/kg PO QD Day 0-13", "value": "1.48 ± 0.48"}, {"measurement": "TIMP-1 mRNA expression level", "setting": "[2]; 50 mg/kg PO QD Day 0-13", "value": "43.82 ± 26.19"}, {"measurement": "Alpha-SMA mRNA expression level", "setting": "[2]; 250 mg/kg PO QD Day 0-13", "value": "2.66 ± 1.33"}, {"measurement": "Collagen Type 1 mRNA expression level", "setting": "[2]; 250 mg/kg PO QD Day 0-13", "value": "4.21 ± 1.90"}, {"measurement": "TGF-β mRNA expression level", "setting": "[2]; 250 mg/kg PO QD Day 0-13", "value": "1.50 ± 0.44"}, {"measurement": "TIMP-1 mRNA expression level", "setting": "[2]; 250 mg/kg PO QD Day 0-13", "value": "30.65 ± 16.80"}]}]}
